Reference: paper PMC6832513, “Antimalarial Properties of Dunnione Derivatives as NQO2 Substrates” (Molecules, 2019)
Like-named read-outs stand apart in the source and are kept apart here.

Legend:
[1] = system: P. falciparum strain FcB1; assay: In vitro antiplasmodial activity, SYBR Green I-based fluorescence assay; type: cell-based, Plasmodium falciparum
Procedure: The in vitro anti-malarial activity was investigated using the SYBR Green I-based fluorescence assay. The asexual intra-erythrocytic stage of P. falciparum laboratory strain FcB1 (chloroquine-resistant strain) was maintained in RPMI 1640 medium containing l-glutamine 200 µM, Hepes 25 mM and 5% human serum (Etablissement Français du Sang—EFS, Toulouse, France). For anti-malarial drug assays, stock solutions of compounds were diluted serially in RPMI 1640 culture medium to test final concentrations between 0.001 and 1 µg/mL in triplicates in a 96-well plate. The final concentration of DMSO was 0.5%. A suspension of sorbitol-synchronized, infected red blood cells (iRBCs) was adjusted to 1% parasitemia and 2% hematocrit in complete medium and added to the wells. Negative controls were prepared with a suspension of iRBCs and 0.5% DMSO. Chloroquine was used as the positive control. Test plates were incubated at 37 °C for 48 h. Afterwards, 100 μL SYBR Green I fluorescent lysis buffer were added to each well and incubated in a dark place at room temperature for 2 h. Fluorescence data were acquired using a fluorescence plate reader (BMG Fluostar Galaxy Labtech) with excitation and emission wavelengths at 485 nm and 518 nm, respectively. The fluorescence values (after subtraction of the background fluorescence of the non-parasitized RBCs) were plotted against the log of the drug concentration, and analyzed by non-linear regression (sigmoidal dose response/variable slope equation) to yield the IC50 (50% inhibitory concentration) that served as a measure of the anti-malarial activity.

[2] = system: P. chabaudi chabaudi; assay: Four-days suppressive test, P. chabaudi chabaudi mice model (uncomplicated malaria); type: in vivo, Plasmodium chabaudi chabaudi in Swiss mice; details: chloroquine 10 mg/kg intraperitoneal D0 to D3, D8
Procedure: As previously described, the four-days suppressive standard test described by Knight and Peters was used to evaluate antimalarial activity of Compounds 1 and 3. P. chabaudi chabaudi (Pcc) and P. berghei ANKA (PbA) infections in Swiss mice were used as experimental models for uncomplicated and cerebral malaria, respectively. […] On the first day (D0), mice were inoculated intraperitoneally with 0.2 mL of infected blood containing about 1 × 10^6 parasitized erythrocytes. […] All mice groups were treated similarly for four consecutive days (D0–D3). Weight, parasitemia and survival were followed daily. To follow peripheral parasite density, thin blood smears were made daily from tail blood from D3 to D14. Blood smears were fixed with methanol and stained with a fast-acting variation of the May–Grünwald Giemsa staining (RAL 555 kit, RAL diagnostics). Average percentage chemosuppression was calculated at D8 for both infection models as ((A − B)/A) × 100 where A is the average percentage parasitemia in the negative control group and B is the average percentage parasitemia in the test group. Survival was monitored twice daily. […]

[3] = biological target: T1, NQO2 (Homo sapiens, UniProt P16083); assay: EPR measurement of free radicals (ROS) produced after metabolism by NQO2; type: biochemical; details: for radical production after reduction by NQO2: EPR with DMPO spin trap; for ROS after NQO2 Reduction: purified NQO2 20 µg/mL, compound 125 µM, BNAH 1 mM, DMPO 125 mM, grades - to + + + + +
T1 construct: The experiments were conducted with purified enzyme NQO2 (20 µg/mL)
T1 sequence (P16083 1-231): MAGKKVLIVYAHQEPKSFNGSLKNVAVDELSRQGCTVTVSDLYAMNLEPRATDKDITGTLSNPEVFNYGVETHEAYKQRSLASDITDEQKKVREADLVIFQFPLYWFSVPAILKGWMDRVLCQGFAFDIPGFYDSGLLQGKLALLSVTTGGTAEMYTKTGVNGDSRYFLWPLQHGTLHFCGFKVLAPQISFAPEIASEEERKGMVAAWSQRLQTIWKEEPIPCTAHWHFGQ
Procedure: As in previous work, we used an indirect assay to characterize the substrates. […] Using the capacity of NQO2 to reduce quinones into hydroquinones or quinols, we incubated the substrate candidates with the enzyme and its co-substrate, a synthetic hydride donor, N-benzyldihydronicotinamide. […] Thus, using an EPR-based assay, it was possible to evaluate the potency of the process by quantifying those bursts by measuring for the presence of free radicals. The rationale of the process was based on the simple idea that such substrates would generate bursts of ROS, which are particularly toxic for infected red cells.
We measured the ability of the selected compounds to produce superoxide radicals during the redox cycle of NQO2 by EPR spectroscopy. The following compounds were used as molecular tools: Menadione (Figure 1) as a reference compound and NQO2 substrate, S29434 as a specific NQO2 inhibitor [17] and dimethyl-pyrroline-N-oxide (DMPO) as a spin trap reagent to characterize ROS.
The experiments were conducted with purified enzyme NQO2 (20 µg/mL), DMPO (125 mM), tested compounds (125 µM) and BNAH (1 mM). For inhibition assays, we added S29434 (30 µM). All analyses were performed at room temperature. EPR spectra were recorded with a Bruker EMX-8/2.7 (9.86 GHz) with a high-sensitivity cavity (4119/HS 0205) and a gaussmeter (Bruker, Wissembourg, France), at X-band. For analyses, we used a flat quartz cell, FZKI160-5 × 0.3 mm (Magnettech, Berlin, Germany). We performed data processing and spectrum acquisition with WINEPR software (Bruker). Scanning parameters were: Number of scans, 5; magnetic field, 3460–3560 G; sweep width, 100 G; scan rate, 1.2 G/s; modulation amplitude, 1 G; sweep time, 83.88 s; time constant, 40.96 ms; modulation frequency, 100 kHz; and microwave power, 20 mW. The EPR spectra were analyzed as reported previously. The EPR spectrum was presented with the magnetic field on the x-axis in gauss (g) and the intensity of the peaks on the y-axis in arbitrary units (a.u.).

[4] = Cytotoxic evaluation on the Hela cell line (MTT assay); type: cell-based; details: human, Hela cells
Procedure: The evaluation of the tested molecules’ cytotoxicity on the Hela cell line was conducted according to the method of Mosman with slight modifications. Briefly, cells (1 × 10^5 cells/mL) in 100 µL of complete medium, (MEM supplemented with 10% fetal bovine serum, 2 mM L-glutamine and antibiotics (100 U/mL penicillin and 100 µg/mL streptomycin) were seeded into each well of the 96-well plates and incubated at 37 °C and 5% CO2. After a 24 h incubation, 100 µL of medium with various product concentrations and appropriate controls were added and the plates were incubated for 72 h at 37 °C and 5% CO2. Each plate-well was then microscope-examined to detect possible precipitate formation before the medium was aspirated from the wells. MTT solution (100 µL, 0.5 mg/mL in RPMI) was then added to each well. Cells were incubated for 2 h at 37 °C and 5% CO2. After this time, the MTT solution was removed and DMSO (100 µL) was added to dissolve the resulting formazan crystals. Plates were shaken vigorously (300 rpm) for 5 min. The absorbance was measured at 570 nm with a microplate spectrophotometer (Eon BioTek). DMSO was used as blank and doxorubicin (purchased from Sigma Aldrich) as positive control. CC50 were calculated by non-linear regression analysis processed on dose response curves, using TableCurve 2D V5 software (San Jose, CA, USA). CC50 values represent the mean value calculated from three independent experiments.

[5] = Plasmodium falciparum, FCB1, 48 h, P. falciparum FcB1 (chloroquine-resistant strain), 48 h, read-out: IC50

SMILES	IC50 ([1]; Plasmodium falciparum, FCB1, 48 h) [nM]	% inhibition of parasite density at D8 [2] [%]	radical production after reduction by NQO2 [3]	TI (Therapeutic Index = CC50/IC50) [1]	IC50 ([1]; P. falciparum FcB1 (chloroquine-resistant strain), 48 h, read-out: IC50) [nM]	IC50 [1, 5] [nM]	CC50 at 72 h [4] [nM]	radical production after adding the specific NQO2 inhibitor S29434 ([3]; EPR, S29434 30 µM)	ROS after NQO2 Reduction ([3]; EPR, key not given)	CC50 values fold higher than the IC50 value [1]	ROS after Inhibition of NQO2 with S29434 ([3]; EPR, as above plus S29434 30 µM, grades - to + +, key not given)
CCN(CC)CCCC(C)Nc1ccnc2cc(Cl)ccc12 (stereo not shown) [Chloroquine, chloroquine, reference compound]	0.164 ± 0.055	98.2	–	–	–	–	–	–	–	–	–
COc1ccc2c(c1)C1=C(C(=O)C2=O)C(C)(C)C(C)O1 (stereo not shown) [Compound 2]	–	–	no radicals were detected	2.15	580 ± 503	630 to 850	1250 ± 160	–	–	–	–
COc1ccc2c(c1)C(=O)C1=C(C2=O)C(C)(C)C(C)O1 (stereo not shown) [Compound 4]	–	–	produced radicals	8.53	–	1380 ± 627	11800 ± 2200	decreased	+ + +	8-9 fold	–
COc1ccc2c(c1)C(=O)C1=C(OC(C)C1(C)C)C2=O (stereo not shown) [Compound 5]	–	–	no radicals were detected	9.81	–	1520 ± 853	14900 ± 3230	–	–	8-9 fold	–
COc1ccc2c(c1)C(=O)C1=C(OC(C)(C)CC1)C2=O [Compound 6]	–	–	produced radicals	>0.94	–	19500 ± 7090	> 18400	–	+ + +	–	+ +
COc1ccc2c(c1)C1=C(CCC(C)(C)O1)C(=O)C2=O [Compound 7]	–	–	no radicals were detected	2.21	–	753 ± 484	1660 ± 368	–	–	–	–
COc1cccc2c1C(=O)c1c(O)c3c(c(O)c1C2=O)C[C@@](O)(C(=O)CO)C[C@@H]3O[C@H]1C[C@H](N)[C@H](O)[C@H](C)O1 [Doxorubicin, doxorubicin, reference compound]	–	–	–	–	–	–	311 ± 478	–	–	–	–
CC1=CC(=O)c2ccccc2C1=O [Menadione, menadione, reference compound]	–	–	–	–	–	–	–	–	+ + + + +	–	–
